Reference: patent US8772250B2, “Compositions and methods for treating ischemia and ischemia-reperfusion injury” (Ischemix, LLC, priority 2010, dated 2014)

What was measured:
[1] = system: Akt; experiment: Cytoblot assay for Akt activation in A549 cells; assay type: cell-based, human
Method: The ability of RLip-EA-OH to increase phosphorylated Akt was assayed using an in-cell western blot, or cytoblot. A549 cells (human non-small cell lung cancer cell line) were selected because these cells can be manipulated to increase or decrease the level of phosphoryated Akt. The cells were inoculated onto culture plates and allowed to adhere to the bottom, then treated, fixed, and permeabilized. Following permeabilization, the cells were treated with antibodies specific for either phospho-Akt or total Akt. The cells were then treated with fluorescent secondary antibodies to quantify the amount of bound primary antibody. Total Akt and phospho-Akt were simultaneously detected.
A549 cells were plated in 384 well black-wall, clear-bottom, cell culture-treated microtiter plates at 70% confluence. Cells were incubated overnight to allow cell attachment. The media was changed to low serum (0.1%, fetal bovine serum [FBS]) and the cells were incubated for another 24 hours. Cells were treated with test compounds, fixed and permeabilized for the Akt assay. The fixative was 3.7% formaldehyde in phosphate buffered saline. The permeabilization buffer was 0.5% Triton X-100 in phosphate buffered saline. After permeabilization of cells, the amounts of total Akt and phosphorylated Akt at either of the two phosphorylation sites (threonine-308 and serine-473) were determined at 7 test concentrations, each performed in quadruplicate. The phospho-Akt data were normalized to total Akt and background subtracted for analysis.
Following overnight serum starvation to reduce basal Akt phosphorylation, cells were stimulated with vehicle, RLip-EA-OH, or RLip-OH. Cells were treated for 45 minutes or 3 hours and studied for phosphorylation at serine-473 or threonine 308, respectively.

[2] = system: myocardial I/R injury; experiment: Incidence of acute cardiac dysfunction and mortality in rat model of myocardial I/R injury; assay type: in vivo
Method: The incidence of acute cardiac dysfunction associated with arrhythmia and cardiac arrest requiring intervention and the incidence of mortality due to these co-morbidities was examined in the rat model of myocardial I/R injury described herein for different dosages and dosage regimens for administering RLip-EA-OH. In vivo experiments were performed as described in Example 8 using dosage intervals described in Example 10. Treatments (i.e., vehicle, RLip-EA-OH) were administered as a left intra-ventricular injection, IV bolus, IV infusion, or orally. Specifically, the incidence of non-self-resolving cardiac dysfunction (i.e., extended fibrillation arrhythmia, sudden cardiac arrest) during ischemia and requiring intervention (direct mechanical cardiac resuscitation), and mortality associated with cardiac dysfunction were observed.

[3] = system: CHO M1-WT3 cells; experiment: Cytosolic calcium overload assay, carbachol stimulated; assay type: cell-based, Chinese hamster; conditions: 200 nM carbachol, variant concentrations
Source text: Cytosolic calcium increases in the CHO M1-WT3 cells when stimulated with carbachol ([Molecular Devices, FlexStation Application Note 2, Comparison of FLIPR® and FLEXstation™ for Calcium Mobilization Assays]) and may be detected with a fluorescent dye that binds calcium. An increase in fluorescence following carbachol stimulation is interpreted as an increase in cytosolic calcium. Chinese hamster ovary (CHO) cells were allowed to adhere to the bottom of a 96-well culture plate. The fluorescent dye and a test sample were placed on the plate and allowed to be taken up by the cells. The fluorescence level was measured every two seconds using a plate reader (Flexstation II, Molecular Devices, Sunnyvale Calif.). The cells were stimulated with carbachol and fluorescent data reported as the peak increase in fluorescence above baseline following carbachol stimulation. Data were normalized to the peak carbachol response in the control sample.
CHO cells from the cell line CHO-M1-WT3 were grown in Hams F12 medium supplemented with 10% FBS and 5 μg/mL G418 to maintain expression of the M1 muscarinic receptor. Cells were seeded the night before the experiment at a concentration of 30,000 cells/well in a volume of 100 μL per well of black walled, clear bottomed, 96-well microplates (“assay plates”). Cells were incubated at 37° C. and 5% CO2 overnight. […] The cells were placed into the FlexStation system to monitor fluorescence before and after the addition of 50 μL of 1 μM carbachol for a final concentration of 200 nM. Fluorescence was measured for 17 seconds prior to carbachol addition and 43 seconds following carbachol addition. The Fluo-4 dye was excited at a wavelength of 485 nm and emission measured at 525 nm. The Calcium-3 dye was excited at a wavelength of 494 nm and emission measured at 525 nm. The calcium response was reported as the peak fluorescence minus the baseline fluorescence calculated as the average of the fluorescence prior to carbachol addition.

[4] = Oxygen Radical Absorbance Capacity (ORAC) assay; conditions: mean of 3-4 experiments
Source text: Peroxyl radicals are one species of reactive oxygen produced by cells during reperfusion. The presence of peroxyl radicals can be detected by fluorescein oxidation. In the presence of peroxyl radicals, fluorescein fluorescence will decay over time. In the presence of an oxygen radical scavenger, the rate of decay is diminished. The change in the rate of decay between control and in the presence of scavengers is used to measure the peroxyl radical scavenging ability of a test compound.
Each compound tested was diluted to a concentration ranging from 25 μM to 250 μM in 10 mM phosphate buffer (pH=7.4) containing 10 nM fluorescein. The buffer and compound were incubated at 37° C. for 10 minutes. After the incubation, flourescein fluorescence was measured using a plate reader (Molecular Devices Flexstation II, Ex=485, Em=520). Baseline fluorescence measurements were recorded for 15 minutes before 2,2′-azobis(2-methylpropionamidine) dihydrochloride (AAPH) was added. The fluorescence decay was recorded for 90 minutes. The fluorescence decay without compound was subtracted from the fluorescence decay with compound. The slope of the decay vs. concentration is reported as the absorbance capacity.

Q: Which results are given for `C[C@H](NC(=O)[C@H](CCC(=O)O)NC(=O)CCCC[C@@H]1CCSS1)C(=O)O` [RLip-EA-OH, N-(R)-lipoyl-L-glutamyl-L- alanine]?
A: increase in phosphorylated Akt at serine 473 ([1]; 45 minutes of treatment): 3 fold; Akt phosphorylation at threonine-308 ([1]; 3 hours of treatment, compound alone): Increased Akt phosphorylation; amount of phosphorylated Akt relative to total Akt ([1]; variant concentrations): increased the amount of phosphorylated Akt relative to total Akt in a dose dependent manner; Intervention due to Arrhythmia/Arrest (%) ([2]; Multi-dose (2x)): 3\19 (16) %; Mortality (%) ([2]; Multi-dose (2x)): 1\19 (5) %; Intervention due to Arrhythmia/Arrest (%) ([2]; Multi-dose (3x)): 4\18 (22) %; Mortality (%) ([2]; Multi-dose (3x)): 1\18 (5) %; Intervention due to Arrhythmia/Arrest (%) ([2]; Single dose): 6\17 (35) %; Mortality (%) ([2]; Single dose): 2\17 (12) %; effect on carbachol stimulated flux in cytosolic calcium [3]: diminished the flux in cytosolic calcium in a dose dependent manner; ORAC Value relative to RLip-EA-OH [4]: 100 ± 11; ORAC Value relative to RLip-OH [4]: 131 ± 6^
